Consider 4 molecules from patent publication US5795860A, “Analogs for specific oligosaccharide-protein interactions and uses therefor” (Repligen Corporation, priority 1994, dated 1998).

The test system of one series is IL-8. Put plainly: IL-8 mediated inflammation, influx of polymorphonuclear leukocytes into the peritoneal cavity. The format is in vivo, mouse. The conditions noted are these: protamine chloride 100-250 mg i.v. (tail vein), IL-8 i.p.
Series [1] has as its system "Glyceptor" sequences on post-capillary endothelium of human dermal tissue. Nature of the series: binding of 125I-labeled chemokine to human dermal tissue, microscopic autoradiography. The conditions noted are these: for binding of 125I-labeled chemokine to vasculature / post-capillary endothelium: microscopic autoradiography. The protocol:
A sample of human dermal tissue of about 1 mm^3 is incubated with ^125 I-labeled human IL-8 as described in the art (see, e.g., Rot, A. (1992) Cytokine 4, 347, the disclosure of which is incorporated herein by reference).

Series [2] is described as follows: affinity coelectrophoresis of ELQ-IL-8 with heparin. The format is binding. The conditions noted are these: compared with native IL-8. An excerpt:
Commercial heparin (porcine mucosa, Sigma Biochemical) is radioactively labeled by first incorporating tyramine at the reducing end of the chains and then introducing radioactive iodine using the chloramine T reaction, a procedure well known in the art. The heparin is size fractionated on a Sephadex G-100 column (Pharmacia) and the last 10% of the heparin to elute is selected and utilized for the labeling. The labeled low molecular weight heparin is then bound to varying concentrations of IL-8 under equilibrium conditions using the technique of affinity coelectrophoresis, as described by Lee and Lander, Proc. Nat. Acad. Sci., U.S.A. (1991) 88, 2768-2772. Briefly, a horizontal 1% agarose gel is poured, using low melting point agarose, that contains nine rectangular wells of equal dimensions (about 3×10 mm). The buffer used comprises 125 mM sodium acetate, 50 mM MOPSO, pH 7.0. 0.5% 3-[3-cholamidopropyl) dimethylammonio]-1-propanesulfonate (CHAPS) may be used in the buffer to prevent adventitious binding of protein to vessel walls. The wells in the horizontal gel are subsequently filled with a requisite amount of 1% agarose which contains varying concentrations of IL-8 ranging from about 80 nM up to about 80 μM. The IL-8 may be produced by recombinant means as is well known in the art or may alternatively be produced as a synthetic peptide. […]

The next series relates to neutrophils. Nature of the series: activation or attraction of neutrophils. The format is cell-based.
Series [3] in a line: affinity coelectrophoresis of ELQ-IL-8 with heparan sulfate. The format is binding. The conditions noted are these: compared with native IL-8.
A short description of series [4]: heparin-agarose column, NaCl gradient elution. The format is binding. The conditions noted are these: NaCl gradient 0.125M up to 1M; 50 mM Tris. The procedure: A mutant IL-8 gene is synthesized in which the ELR sequence at positions 4-6 (Seq. ID No. 1) is modified to glu-leu-gln (ELQ). The modified gene is expressed in E. coli by standard techniques well known to those skilled in the art and the protein product is extracted from the lysed cell pellet with 6M guanidine-HCl. The extract is dialyzed against 50 mM Tris, 0.125M NaCl and passed over a heparin-agarose column. […] The mutant chemokine is eluted from the column at about 0.6-0.7M salt.

For series [5], the system named is "Glyceptor" sequence-effector molecule interactions. Nature of the series: interference with "Glyceptor" sequence-effector molecule interactions. The format is binding.

Consider protamine chloride, for which, in “toxicity of protamine”, the toxicity entry is given as “generally toxic agent”. Besides, the “inhibition of neutrophil influx” value in the series with IL-8 was “significant inhibition of neutrophil influx”.

As for “ELQ-IL-8: mutant IL-8 in which the ELR sequence at positions 4-6 (Seq. ID No. 1) is modified to glu-leu-gln (ELQ)”, in series [1] (10 fold excess over radiolabeled native IL-8, ex vivo), the “binding of labeled native IL-8 to vasculature in presence of ELQ-IL-8” value is given as “substantially reduced”. In addition, the “binding of 125I-labeled chemokine to vasculature / post-capillary endothelium” value in series [1] is given as “Binding occurs in the same pattern as observed with native IL-8”. In addition, the binding to heparin entry in series [2] is given as “behaves in a similar fashion to native IL-8”. Besides, the “activation or attraction of neutrophils” value in the series with neutrophils is recorded as “not able to activate or attract neutrophils”. In addition, the “binding to heparan sulfate” value in series [3] is on record as “behaves in a similar fashion to native IL-8”. In addition, the “salt concentration eluting from heparin-agarose column” value in series [4] was 0.6 to 0.7 M.

As to IL-8: 125I-labeled human IL-8, the “binding of 125I-labeled chemokine to vasculature / post-capillary endothelium” value in series [1] was “binds preferentially to certain regions of the vasculature”.

Consider `Cc1ccc(C(=O)Nc2ccc(S(=O)(=O)O)c3cc(S(=O)(=O)O)cc(S(=O)(=O)O)c23)cc1NC(=O)c1cccc(NC(=O)Nc2cccc(C(=O)Nc3cc(C(=O)Nc4ccc(S(=O)(=O)O)c5cc(S(=O)(=O)O)cc(S(=O)(=O)O)c45)ccc3C)c2)c1` [suramin], for which, in series [5], the “interference with "Glyceptor" sequence-effector molecule interactions” value is on record as “interferes with "Glyceptor" sequence-effector molecule interactions”.
